Format in all cases: cell-based, human
In data set [1] the test system is GREB1. Description: GREB1 expression in HepG2 cells after GREB1 siRNA or GREB1 ASO (cell lysates probed with anti-GREB1 antibody). The following applies: siRNA 10 nm, lysate probing. Here is the method: Phosphorothioated I5-mer antisense oligonucleotides (ASOs) containing AmNA monomers were prepared (synthesized by GeneDesign (Ibaraki, Japan)). In the present specification, “hGREB1-6424-AmNA (15)” is sometimes simply referred to as “ASO-6424” or “GREB1 ASO-6424”. Similar abbreviations are used for describing other ASOs. Using RNAiMAX (Invitrogen, Carlsbad, Calif., USA), HepG2 or COLO679 cells were transfected with 10 nM of ASOs. In experiments, the cells were used from 36 to 48 hours after transfection.
Using RNAiMAX (Life Technologies/Thermo Fisher Scientific), HepG2 cells, Huh6 cells, Hep3B cells, JHH7 cells, and SKMEL28 cells were each transfected with each siRNA (10 nm). In experiments, the cells were used from 48 to 120 hours after transfection.
As reported previously, knockdown of β-catenin decreased HepG2 cell proliferation (see a of FIG. 3). […] Thus, to elucidate the role of GREB1 in HepG2 cells, knockdown of GREB1 was carried out using two different siRNAs.
Next, HepG2 cells were transfected with control ASO or each of the above-described GREB1 ASOs, cultured in a medium containing 10% FBS for 2 days, and the cell lysates were probed with anti-GREB1 antibody and anti-HSP90 antibody.

Data set [2] has as its system HepG2 cells. Nature of the data set: Cell proliferation assay, two-dimensional culture (plastic dish), Cyquant. Here is the method:
Cells were seeded on a plate at 1.0×10^4 cells/mL, and, after 12 hours, the medium was replaced with a medium containing 10% serum. While the cell number was counted every 48 hours, the cells were cultured up to 10 days. The measurement of the cell number was performed using Cyquant NF assays (Life Technologies/Thermo Fisher Scientific) according to protocols recommended by the manufacturer.
Mock HepG2 cells (having a vector only, containing no GREB1) or GREB1-transduced HepG2 cells were transfected with control siRNA or two different types of siRNA (GREB1 #1 siRNA and GREB1 #2 siRNA), then two-dimensional culture (plastic dish culture) was performed, and a relative cell number was calculated by Cyquant assay overtime. As a result, in GREB1 knockdown, proliferative capacity of HepG2 cells in two-dimensional culture was reduced. However, when GREB1-transduced HepG2 cells were transfected with siRNAs against GREB1 (GREB1 #1 siRNA/GREB1 and GREB1 #2 siRNA/GREB1), the proliferative capacity of HepG2 cells was not affected (see a of FIG. 4).

In data set [3] the test system is HepG2 cells. Nature of the data set: Three-dimensional Matrigel culture, area of spheres. Conditions: 3D Matrigel for 5 days. Here is the method:
Cells grown on a glass cover slip were fixed with PBS containing 4% (w/v) paraformaldehyde at room temperature for 10 minutes, and permeabilization treatment was performed in PBS containing 0.2% (w/v) Triton X-100 and 2 mg/ml BSA for 10 minutes. Further, cells grown by three-dimensional culture were fixed in PBS containing 4% (w/v) paraformaldehyde at room temperature for 30 minutes, and blocked in PBS containing 0.5% (w/v) Triton X-100 and 40 mg/ml BSA for 30 minutes. […]
Further, HepG2 cells transfected with control siRNA or siRNA (GREB1 #2 siRNA) were cultured in 3D Matrigel for 5 days, and the cultured cells were stained with phalloidin to measure the areas of spheres (n=20). […] The ratio of spheres having polarized lumens was calculated as a ratio of spheres having F-actin-positive central microlumen to the total spheres.
Further, HepG2 cells expressing GFP or GFP-GREB1 were transfected with control ASO or each of the above-described GREB1 ASOs, and cultured in three-dimensional Matrigel for 4 days. The cultured cells were stained with phalloidin and Hoechst33342, and the areas of spheres were calculated (n=50).

As to “GREB1 #2 siRNA: siRNA against human GREB1; sense 5′-CCUCCUACAAAGCAAUAUUTT-3′ (SEQ ID NO: 6), antisense SEQ ID NO: 7 (antisense AAUAUUGCUUUGUAGGAGGTT; chemistry not given here)”, the “knockdown of GREB1 (anti-GREB1 antibody)” value in data set [1] is on record as “knocked down”. In addition, the “proliferative capacity of HepG2 cells in two-dimensional culture” value is recorded as “not affected” in data set [2] (GREB1-transduced HepG2 cells) and “reduced” in data set [2] (mock HepG2 cells, relative cell number by Cyquant over time). The “ratio of spheres having polarized lumens” value in data set [3] is on record as “increased”. In addition, the area of sphere result in data set [3] (phalloidin, n=20) is listed as “reduced the area of sphere to half”.

For the origin of these results see patent US20220249538A1, “TREATMENT AGENT FOR SEX HORMONE-INSENSITIVE GREB1-POSITIVE TUMORS” (OSAKA UNIVERSITY, priority 2019, published 2022).
